Tested on: 519858-162-T-J1-PDC complex spheroid viability
Test: Anticancer human tumor 519858-162-T-J1-PDC patient-derived colon adenocarcinoma cell line growth inhibition [GQUAD]
Conditions: for IC50: curve of first compound; for viability, T/C: stronger effect = lower value
Summary of the method: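 Viability of tumor cells grown as complex spheroids with endothelial and stromal cells, exposed to drug combinations. Top concentration at or near clinical Cmax (else 10 microM), diluted in half-log increments.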

[1] = second compound 0.0316 µM, first compound 0.0316 µM
[2] = second compound 0.0316 µM, first compound 0.1 µM
[3] = second compound 0.0316 µM, first compound 0.316 µM
[4] = second compound 0.0316 µM, first compound 1 µM
[5] = second compound 0.0316 µM, first compound 3.16 µM
[6] = second compound 0.0316 µM, first compound 10 µM
[7] = second compound 0.1 µM, first compound 0.0316 µM
[8] = second compound 0.1 µM, first compound 0.1 µM
[9] = second compound 0.1 µM, first compound 0.316 µM
[10] = second compound 0.1 µM, first compound 1 µM
[11] = second compound 0.1 µM, first compound 3.16 µM
[12] = second compound 0.1 µM, first compound 10 µM
[13] = second compound 0.316 µM, first compound 0.0316 µM
[14] = second compound 0.316 µM, first compound 0.1 µM
[15] = second compound 0.316 µM, first compound 0.316 µM
[16] = second compound 0.316 µM, first compound 1 µM
[17] = second compound 0.316 µM, first compound 3.16 µM
[18] = second compound 0.316 µM, first compound 10 µM
[19] = second compound 1 µM, first compound 0.0316 µM
[20] = second compound 1 µM, first compound 0.1 µM
[21] = second compound 1 µM, first compound 0.316 µM
[22] = second compound 1 µM, first compound 1 µM
[23] = second compound 1 µM, first compound 3.16 µM
[24] = second compound 1 µM, first compound 10 µM
[25] = second compound 3.16 µM, first compound 0.0316 µM
[26] = second compound 3.16 µM, first compound 0.1 µM
[27] = second compound 3.16 µM, first compound 0.316 µM
[28] = second compound 3.16 µM, first compound 1 µM
[29] = second compound 3.16 µM, first compound 3.16 µM
[30] = second compound 3.16 µM, first compound 10 µM
[31] = second compound 10 µM, first compound 0.0316 µM
[32] = second compound 10 µM, first compound 0.1 µM
[33] = second compound 10 µM, first compound 0.316 µM
[34] = second compound 10 µM, first compound 1 µM
[35] = second compound 10 µM, first compound 3.16 µM
[36] = second compound 10 µM, first compound 10 µM
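Wherever viability, T/C is given: 100% = DMSO vehicle control viability.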

C=CCn1c(=O)c2cnc(Nc3ccc(N4CCN(C)CC4)cc3)nc2n1-c1cccc(C(C)(C)O)n1 + Cc1cnc(CNC(=O)c2c(=O)c3ccc(N4CCCN(C)CC4)nc3n3c2sc2ccccc23)cn1
IC50 (second compound 0.0316 µM): > 10000 nM
IC50 (second compound 0.1 µM): > 10000 nM
IC50 (second compound 0.316 µM): > 10000 nM
IC50 (second compound 1 µM): < 31.6 nM
IC50 (second compound 3.16 µM): < 31.6 nM
IC50 (second compound 10 µM): < 31.6 nM
viability, T/C [1]: 95.6%
viability, T/C [2]: 82.6%
viability, T/C [3]: 94.3%
viability, T/C [4]: 66.1%
viability, T/C [5]: 70.4%
viability, T/C [6]: 76%
viability, T/C [7]: 81.8%
viability, T/C [8]: 96.9%
viability, T/C [9]: 58.5%
viability, T/C [10]: 92%
viability, T/C [11]: 66.8%
viability, T/C [12]: 69.7%
viability, T/C [13]: 51.6%
viability, T/C [14]: 73%
viability, T/C [15]: 49.8%
viability, T/C [16]: 64.2%
viability, T/C [17]: 75.8%
viability, T/C [18]: 64.3%
viability, T/C [19]: 60%
viability, T/C [20]: 48.2%
viability, T/C [21]: 38.8%
viability, T/C [22]: 42.4%
viability, T/C [23]: 73.6%
viability, T/C [24]: 68%
viability, T/C [25]: 46.3%
viability, T/C [26]: 51.4%
viability, T/C [27]: 53.8%
viability, T/C [28]: 45.5%
viability, T/C [29]: 49.5%
viability, T/C [30]: 53.4%
viability, T/C [31]: 40%
viability, T/C [32]: 55.3%
viability, T/C [33]: 51.6%
viability, T/C [34]: 40.1%
viability, T/C [35]: 32.3%
viability, T/C [36]: 39.4%

CC(C)(O)C1CCC(Nc2ccc3ncc(-c4cccc(C(F)(F)F)c4)n3n2)CC1 (stereo unspecified) + Cc1cnc(CNC(=O)c2c(=O)c3ccc(N4CCCN(C)CC4)nc3n3c2sc2ccccc23)cn1
IC50 (second compound 0.0316 µM): 2150 nM
IC50 (second compound 0.1 µM): 1980 nM
IC50 (second compound 0.316 µM): 1450 nM
IC50 (second compound 1 µM): 262 nM
IC50 (second compound 3.16 µM): < 31.6 nM
IC50 (second compound 10 µM): 31.6 nM
viability, T/C [1]: 101%
viability, T/C [2]: 111%
viability, T/C [3]: 93.2%
viability, T/C [4]: 103%
viability, T/C [5]: 11%
viability, T/C [6]: 36.5%
viability, T/C [7]: 87.6%
viability, T/C [8]: 95.5%
viability, T/C [9]: 107%
viability, T/C [10]: 105%
viability, T/C [11]: 8.82%
viability, T/C [12]: 24.6%
viability, T/C [13]: 107%
viability, T/C [14]: 72.4%
viability, T/C [15]: 63.5%
viability, T/C [16]: 80.9%
viability, T/C [17]: 20.8%
viability, T/C [18]: 31.2%
viability, T/C [19]: 71.1%
viability, T/C [20]: 68.8%
viability, T/C [21]: 42.1%
viability, T/C [22]: 48.5%
viability, T/C [23]: 42.4%
viability, T/C [24]: 52.3%
viability, T/C [25]: 37.5%
viability, T/C [26]: 43.1%
viability, T/C [27]: 50.8%
viability, T/C [28]: 47.1%
viability, T/C [29]: 31.4%
viability, T/C [30]: 20.8%
viability, T/C [31]: 36.4%
viability, T/C [32]: 45.3%
viability, T/C [33]: 52.3%
viability, T/C [34]: 64.7%
viability, T/C [35]: 9.24%
viability, T/C [36]: 0.75%

COc1ncnc(C2CC2)c1-c1ncc2cnn(Cc3ccc(-c4nc(C(F)(F)F)cn4C(C)C)cc3)c2n1 + Cc1cnc(CNC(=O)c2c(=O)c3ccc(N4CCCN(C)CC4)nc3n3c2sc2ccccc23)cn1
IC50 (second compound 0.0316 µM): > 10000 nM
IC50 (second compound 0.1 µM): > 10000 nM
IC50 (second compound 0.316 µM): 8600 nM
IC50 (second compound 1 µM): 809 nM
IC50 (second compound 3.16 µM): < 31.6 nM
IC50 (second compound 10 µM): < 31.6 nM
viability, T/C [1]: 87.7%
viability, T/C [2]: 65.6%
viability, T/C [3]: 88.7%
viability, T/C [4]: 79.3%
viability, T/C [5]: 90.6%
viability, T/C [6]: 67.6%
viability, T/C [7]: 85.6%
viability, T/C [8]: 74.8%
viability, T/C [9]: 97.7%
viability, T/C [10]: 77.9%
viability, T/C [11]: 97.2%
viability, T/C [12]: 54%
viability, T/C [13]: 72.4%
viability, T/C [14]: 54.8%
viability, T/C [15]: 64.1%
viability, T/C [16]: 67.5%
viability, T/C [17]: 45.5%
viability, T/C [18]: 50.4%
viability, T/C [19]: 55.7%
viability, T/C [20]: 54.1%
viability, T/C [21]: 47.6%
viability, T/C [22]: 47.8%
viability, T/C [23]: 49.1%
viability, T/C [24]: 53.3%
viability, T/C [25]: 49.2%
viability, T/C [26]: 40.1%
viability, T/C [27]: 46%
viability, T/C [28]: 30.3%
viability, T/C [29]: 63.7%
viability, T/C [30]: 48.6%
viability, T/C [31]: 35.8%
viability, T/C [32]: 55.3%
viability, T/C [33]: 48.5%
viability, T/C [34]: 26.8%
viability, T/C [35]: 47.6%
viability, T/C [36]: 90.8%

Reference: PubChem BioAssay AID2060507 (Molecular Pharmacology Branch, DTP, NCI, 2025)
